Source: patent US20220315534A1, “BETA ADRENERGIC AGONIST AND METHODS OF USING THE SAME” (Curasen Therapeutics, Inc., priority 2019, published 2022)
Where two headings read alike, the source gives them in different places.

Legend:
[1] = target: T1, β2-adrenergic receptor (B2-AR) (Homo sapiens, UniProt P07550); experiment: cAMP Gs dynamic HTRF assay, cells expressing β2-adrenergic receptor; format: cell-based
T1 construct: expressed in transfected cells
Procedure: (§1) cAMP homogeneous time-resolved fluorescence (HTRF): experimental methods. Compound efficacy is determined using the cAMP Gs dynamic HTRF assay (Cisbio, catalog #62AM4PEC) largely following the manufacturer's instructions, also detailed below.
(§2) Standard serial dilution curves are 10-point, 5-fold dilutions starting from a highest concentration of 10 μM. […] Assay plates are centrifuged at 500×g for 10 seconds. Compounds and IBMX are prepared at 2× final dose to compensate for addition of cells.
(§3) Cell preparation: 1× stimulation buffer, washing PBS (Dulbecco's phosphate-buffered saline, —Mg —Ca; Caisson Labs, catalog #PBL01), assay PBS (Dulbecco's phosphate-buffered saline, +Mg, +Ca; Caisson Labs, catalog #PBL02) and Versene (0.02% EDTA disodium salt solution in PBS without calcium or magnesium; Caisson Labs, catalog #EDL01) are pre-warmed to 37° C. Cells expressing beta-adrenergic receptor were washed in washing PBS to remove growth medium and then released from the surface by incubating with Versene for 5-10 minutes at 37° C. Cells are harvested using assay PBS, counted manually by hemocytometer or by an automated cell counter, pelleted by centrifugation (200×g, 5 minutes) and resuspended in 37° C. 1× stimulation buffer to a final density of […]. 5 μL of the suspended cell solution (7500 cell total) are added to all wells of the 384 well assay plate, the assay plate was covered with an Axygen® plate seal (Corning PCR-SP) and incubated in a humidified 37° C. environment supplemented with 5% CO2 for 30 minutes.
(§4) HTRF reagent addition, reading and data analysis: After 30 minutes of cell stimulation with test compound, the assay plates are centrifuged at 500×g for 10 seconds, and incubation was stopped with the addition of 5 μL cAMP-D2 acceptor, diluted 1:21 in detection and lysis buffer 2 (Cisbio 62CL2FDF) was added to all cells. Subsequently, 5 μL Anti-cAMP-Eu Donor, diluted 1:21 in detection and lysis buffer 2, was added to cells. Plates were sealed and reactions gently ‘vortexed’ at 900 rpm on a Heidolph Titramax 1000 for at least 30 minutes at room temperature. Plates are centrifuged again at 500×g for 10 seconds, and HTRF was measured using a Tecan Spark plate reader at 50 flashes per well. […] Potency estimates (EC50 and pEC50) are derived from the four-parameter nonlinear regression of the concentration-effect curve and an estimate of relative efficacy is determined by comparing the magnitude of the test compound HTRF signal window (min-max dose) with the signal window of the full agonist control, isoproterenol.

[2] = target: T2, β1-adrenergic receptor (B1-AR) (Homo sapiens, UniProt P08588); experiment: cAMP Gs dynamic HTRF assay, cells expressing β1-adrenergic receptor; format: cell-based
T2 construct: expressed in transfected cells
T2 sequence (P08588 whole entry): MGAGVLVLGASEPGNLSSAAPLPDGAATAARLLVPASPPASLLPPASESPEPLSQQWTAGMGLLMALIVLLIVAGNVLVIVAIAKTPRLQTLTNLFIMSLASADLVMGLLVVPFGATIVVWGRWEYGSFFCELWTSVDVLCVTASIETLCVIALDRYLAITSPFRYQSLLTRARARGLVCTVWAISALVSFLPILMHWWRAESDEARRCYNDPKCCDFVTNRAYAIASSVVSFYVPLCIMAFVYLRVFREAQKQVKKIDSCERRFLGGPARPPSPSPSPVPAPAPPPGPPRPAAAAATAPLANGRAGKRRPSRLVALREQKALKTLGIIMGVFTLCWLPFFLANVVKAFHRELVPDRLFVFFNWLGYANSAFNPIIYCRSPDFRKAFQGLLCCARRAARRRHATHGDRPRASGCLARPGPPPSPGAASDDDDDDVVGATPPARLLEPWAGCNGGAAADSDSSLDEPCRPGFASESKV
Procedure: as §1, §2, §3, §4

[3] = CHO-K1 (HitHunter) cells, read-out: Average pEC50 [Receptor subtype: B2-AR, Cell type: CHO-K1 (HitHunter)] (converted)
[4] = CHO-K1 (HitHunter) cells, read-out: Average pEC50 [Receptor subtype: B1-AR, Cell type: CHO-K1 (HitHunter)] (converted)

T1 sequence (P07550 whole entry): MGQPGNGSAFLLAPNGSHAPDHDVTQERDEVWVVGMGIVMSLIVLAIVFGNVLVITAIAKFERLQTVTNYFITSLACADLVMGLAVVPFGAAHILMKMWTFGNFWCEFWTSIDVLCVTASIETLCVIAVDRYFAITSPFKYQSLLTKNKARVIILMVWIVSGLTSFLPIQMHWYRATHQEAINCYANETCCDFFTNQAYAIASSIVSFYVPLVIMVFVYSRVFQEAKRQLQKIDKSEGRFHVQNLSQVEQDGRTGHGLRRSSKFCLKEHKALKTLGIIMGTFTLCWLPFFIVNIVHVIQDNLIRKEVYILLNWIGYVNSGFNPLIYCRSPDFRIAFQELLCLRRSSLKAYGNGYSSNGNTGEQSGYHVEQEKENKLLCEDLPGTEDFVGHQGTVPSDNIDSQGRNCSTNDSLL

Row | SMILES | EC50 [1, 3] [µM] | EC50 [2, 4] [µM] | EC50 ([1]; Table 2, cAMP HTRF, read-out: β2 EC50) [µM] | EC50 ([2]; Table 2, cAMP HTRF, read-out: β1 EC50) [µM]
1 | COc1ccc(C[C@@H](C)NC[C@H](O)c2cccc3[nH]c4ccccc4c23)cc1 [Compound 04-125] | < 0.01 | 0.01 to 0.1 | – | –
2 | Cc1nc(N)c(C#N)cc1[C@@H](O)CNC(C)(C)C [Compound 02-10] | 0.1 to 1 | > 1 | – | –
3 | Cc1nc(N)c(C#N)cc1[C@H](O)CNC(C)(C)C [Compound 02-11] | > 1 | > 1 | – | –
4 | CC(C)(C)NC[C@H](O)c1cccc2[nH]cc(F)c12 [Compound 04-112] | < 0.01 | < 0.01 | – | –
5 | CC(C)(C)NC[C@H](O)c1ccc(F)c2[nH]c(=O)ccc12 [Compound 04-4] | < 0.01 | < 0.01 | – | –
6 | Cc1ccc([C@@H](O)CNC(C)(C)C)c2cn[nH]c12 [Compound 04-130] | < 0.01 | < 0.01 | – | –
7 | CC(C)(C)NC[C@H](O)c1cnc(N)c(Cl)c1 [Compound 02-1] | 0.01 to 0.1 | 0.1 to 1 | 0.01 to 0.1 | 0.1 to 1
8 | Cc1ccnc2c([C@H](O)CNC(C)(C)C)cccc12 [Compound 04-83] | 0.1 to 1 | 0.1 to 1 | – | –
9 | Cc1nc([C@@H](O)CNC(C)(C)C)cnc1N [Compound 02-4] | > 1 | 0.1 to 1 | – | –
10 | CC(C)(C)NC[C@@H](O)c1ccc2cccc(Cl)c2n1 [Compound 04-40] | 0.01 to 0.1 | 0.01 to 0.1 | – | –
11 | Cc1cc2c([C@@H](O)CNC(C)(C)C)cccc2[nH]c1=O [Compound 04-18] | 0.01 to 0.1 | < 0.01 | – | –
12 | CC(C)(CO)NC[C@H](O)c1cccc2[nH]c(=O)ccc12 [Compound 04-141] | < 0.01 | 0.01 to 0.1 | – | –
13 | Cc1noc2cccc([C@H](O)CNC(C)(C)C)c12 [Compound 04-30] | – | > 1 | – | –
14 | CC(C)(C)NC[C@H](O)c1cccc2c(C#N)ccnc12 [Compound 04-78] | – | 0.1 to 1 | – | –
15 | CC(C)(C)NC[C@H](O)c1cccc2c1OCC(=O)N2 [Compound 04-19] | < 0.01 | < 0.01 | – | –
16 | Cn1ncc2c([C@H](O)CNC(C)(C)C)cccc21 [Compound 04-28] | > 1 | 0.1 to 1 | – | –
17 | CC(C)(C)NC[C@H](O)c1ccnc2cccnc12 [Compound 04-73] | 0.01 to 0.1 | 0.01 to 0.1 | – | –
18 | CC(C)(C)NC[C@H](O)c1ccc2cccc(Cl)c2n1 [Compound 04-39] | < 0.01 | < 0.01 | – | –
19 | CC(C)(C)NC[C@H](O)c1cccc2c1C1(CC1)C(=O)N2 [Compound 04-103] | 0.1 to 1 | 0.1 to 1 | – | –
20 | CC(C)(C)NC[C@H](O)c1ccc2nn[nH]c2c1 [Compound 04-115] | 0.01 to 0.1 | 0.1 to 1 | – | –
21 | O=c1ccc2c([C@@H](O)CNC3CCC3)cccc2[nH]1 [Compound 04-142] | < 0.01 | < 0.01 | – | –

Row | SMILES | EC50 [1, 3] [µM] | EC50 [2, 4] [µM] | EC50 ([1]; Table 2, cAMP HTRF, read-out: β2 EC50) [µM] | EC50 ([2]; Table 2, cAMP HTRF, read-out: β1 EC50) [µM]
22 | CC(C)(C)NC[C@H](O)c1ccnc2[nH]ncc12 [Compound 04-127] | < 0.01 | 0.01 to 0.1 | – | –
23 | Cc1c[nH]c2cccc([C@@H](O)CNC(C)(C)C)c12 [Compound 04-111] | > 1 | > 1 | – | –
24 | CC(C)(C)NC[C@H](O)c1cccc2[nH]c3ccccc3c12 [Compound 04-57] | < 0.01 | < 0.01 | – | –
25 | CC(C)(C)NC[C@@H](O)c1c(F)ccc2cccnc12 [Compound 04-89] | – | > 1 | – | –
26 | CC(C)(C)NC[C@@H](O)c1c2cn[nH]c2cc[n+]1[O-] [Compound 04-107] | 0.1 to 1 | > 1 | – | –
27 | CC(C)(C)NC[C@H](O)c1cccc2[nH]c3ncccc3c12 [Compound 04-131] | < 0.01 | < 0.01 | – | –
28 | CC(C)(C)NC[C@H](O)c1cc(F)c2[nH]cnc2c1 [Compound 04-156] | < 0.01 | 0.01 to 0.1 | – | –
29 | CC(C)(C)NC[C@H](O)c1ccc2cccc(F)c2n1 [Compound 04-41] | < 0.01 | < 0.01 | – | –
30 | CC(C)(C)NC[C@H](O)c1cccc2cccnc12 [Compound 04-94] | < 0.01 | < 0.01 | – | –
31 | CC(C)(C)NC[C@@H](O)c1ccnc2[nH]ncc12 [Compound 04-126] | > 1 | > 1 | – | –
32 | Cn1ncc2c([C@@H](O)CNC(C)(C)C)cccc21 [Compound 04-27] | 0.01 to 0.1 | < 0.01 | – | –
33 | CC(C)(C)NC[C@H](O)c1cccc2ccc(C#N)nc12 [Compound 04-72] | < 0.01 | < 0.01 | – | –
34 | CC(C)(C)NCC(O)c1cccc2ccccc12 (centres unmarked) [Compound 04-98] | 0.01 to 0.1 | < 0.01 | – | –
35 | CC(C)(C)NC[C@@H](O)c1nccc2[nH]ncc12 [Compound 04-145, (R)-2-(tert-butylamino)-1-(1H-pyrazolo[4,3-c]pyridin-4-yl)ethan-1-ol] | > 1 | > 1 | – | –
36 | Cc1cc(N)nc([C@H](O)CNC(C)(C)C)c1 [Compound 02-12] | > 1 | > 1 | – | –
37 | COc1ccc(CC(C)(C)NC[C@H](O)c2cccc3[nH]c4ccccc4c23)cc1 [Compound 04-55] | < 0.01 | 0.01 to 0.1 | – | –
38 | CC(C)(C)NC[C@@H](O)c1ccc(F)c2[nH]c(=O)ccc12 [Compound 04-16] | 0.01 to 0.1 | 0.1 to 1 | – | –
39 | CC(C)(C)NC[C@H](O)c1cc(C#N)cc2[nH]ncc12 [Compound 04-104] | < 0.01 | 0.1 to 1 | – | –
40 | CC(C)(C)NC[C@@H](O)c1ccc(F)c2cccnc12 [Compound 04-79] | 0.1 to 1 | 0.1 to 1 | – | –
41 | CC(C)(C)NC[C@@H](O)c1cccc2c(C(F)(F)F)ccnc12 [Compound 04-70] | < 0.01 | – | – | –
42 | CC(C)(C)NC[C@H](O)c1ccnc2[nH]c(=O)ccc12 [Compound 04-13] | < 0.01 | 0.01 to 0.1 | – | –

Row | SMILES | EC50 [1, 3] [µM] | EC50 [2, 4] [µM] | EC50 ([1]; Table 2, cAMP HTRF, read-out: β2 EC50) [µM] | EC50 ([2]; Table 2, cAMP HTRF, read-out: β1 EC50) [µM]
43 | CC(C)(C)NC[C@H](O)c1ccc2[nH]ncc2c1 [Compound 04-48] | > 1 | > 1 | – | –
44 | Cc1cc(N)nc([C@@H](O)CNC(C)(C)C)c1 [Compound 02-13] | 0.01 to 0.1 | 0.01 to 0.1 | – | –
45 | CC(C)(C)NC[C@H](O)c1ccc2cccc(C#N)c2n1 [Compound 04-135] | < 0.01 | < 0.01 | – | –
46 | CC(C)(C)NC[C@H](O)c1ccc(C(F)(F)F)c2cccnc12 [Compound 04-82] | < 0.01 | < 0.01 | – | –
47 | CC(C)(C)NC[C@@H](O)c1cccc(N)n1 [Compound 02-6] | 0.01 to 0.1 | 0.1 to 1 | – | –
48 | CC(C)(C)NC[C@H](O)c1nc(C(F)(F)F)cc2ccccc12 [Compound 04-91] | – | > 1 | – | –
49 | CC(C)(C)NC[C@H](O)c1ncc(O)c2ccccc12 [Compound 04-97] | > 1 | > 1 | – | –
50 | CC(C)(C)NC[C@H](O)c1cccc2[nH]c(=O)oc12 [Compound 04-116] | < 0.01 | < 0.01 | – | –
51 | Cc1ccc2cccc([C@H](O)CNC(C)(C)C)c2n1 [Compound 04-87] | 0.1 to 1 | 0.1 to 1 | – | –
52 | CC(C)CNC[C@H](O)c1cccc2[nH]c(=O)ccc12 [Compound 04-143] | 0.01 to 0.1 | 0.01 to 0.1 | – | –
53 | CC(C)(C)NC[C@H](O)c1cccc2cn[nH]c12 [Compound 04-26] | 0.01 to 0.1 | 0.01 to 0.1 | – | –
54 | CC(C)(C)NC[C@H](O)c1cccc2c(C(F)(F)F)ccnc12 [Compound 04-69] | 0.1 to 1 | 0.01 to 0.1 | – | –
55 | CC(C)(C)NC[C@H](O)c1cccc2[nH]c(=O)ccc12 [Compound 04-1, (R)-5-(2-(tert-butylamino)-1-hydroxyethyl)quinolin-2(1H)-one] | < 0.01 | < 0.01 | – | –
56 | CC1(NC[C@H](O)c2cc(F)cc3[nH]ncc23)CC1 [Compound 04-147] | < 0.01 | < 0.01 | – | –
57 | CC(C)(C)NC[C@H](O)c1ccc2c(n1)NCC2 [Compound 04-11] | 0.01 to 0.1 | 0.01 to 0.1 | – | –
58 | COc1ccc([C@@H](O)CNC(C)(C)C)c2cn[nH]c12 [Compound 04-150] | < 0.01 | 0.01 to 0.1 | – | –
59 | CC(C)(C)NC[C@H](O)c1c2cn[nH]c2cc[n+]1[O-] [Compound 04-106] | 0.1 to 1 | 0.1 to 1 | – | –
60 | Cc1c[nH]c2nccc([C@@H](O)CNC(C)(C)C)c12 [Compound 04-114] | > 1 | > 1 | – | –
61 | CC(C)(C)NC[C@H](O)c1ccc2c(c1)CC(=O)N2 [Compound 04-121] | > 1 | – | – | –
62 | CC(C)(C)NC[C@@H](O)c1cccc2c(C#N)ccnc12 [Compound 04-77] | > 1 | – | – | –
